Columns and labels:
human FSH receptor = molecular target: T1, human FSH receptor (Homo sapiens, UniProt P23945); assay: Follicle-Stimulating Hormone Receptor-Dependent Cre-Luciferase Reporter Gene Assay (CHO FSH-R 6CRE-Luc cells); assay type: cell-based; conditions: for IC50: dose-response format, in presence of EC50 of purified human FSH; for inhibition at 30 µM: 2-dose format, concentration in parentheses 30 μM, inhibition of the response to EC50 of FSH
T1 construct: host or cells: CHO-K1 (CHO FSH-R 6CRE-Luc, 1D7 cells)
T1 sequence (P23945 18-695): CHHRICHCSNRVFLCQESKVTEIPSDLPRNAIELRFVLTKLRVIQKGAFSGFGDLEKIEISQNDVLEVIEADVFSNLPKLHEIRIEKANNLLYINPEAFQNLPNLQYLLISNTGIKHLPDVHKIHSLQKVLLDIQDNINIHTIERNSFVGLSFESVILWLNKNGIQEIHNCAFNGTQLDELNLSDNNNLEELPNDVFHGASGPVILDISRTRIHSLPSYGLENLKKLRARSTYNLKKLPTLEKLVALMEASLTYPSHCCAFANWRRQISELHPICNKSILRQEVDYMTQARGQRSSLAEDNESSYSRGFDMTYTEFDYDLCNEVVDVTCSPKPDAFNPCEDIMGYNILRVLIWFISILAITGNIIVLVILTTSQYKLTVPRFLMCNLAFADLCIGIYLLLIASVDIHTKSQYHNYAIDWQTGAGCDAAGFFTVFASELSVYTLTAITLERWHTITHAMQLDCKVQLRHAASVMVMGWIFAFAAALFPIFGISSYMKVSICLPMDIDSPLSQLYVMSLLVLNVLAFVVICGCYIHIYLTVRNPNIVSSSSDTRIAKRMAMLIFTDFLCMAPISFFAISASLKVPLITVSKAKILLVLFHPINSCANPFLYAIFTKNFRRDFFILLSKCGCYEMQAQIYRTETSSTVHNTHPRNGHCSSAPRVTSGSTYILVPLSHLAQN
Text: Follicle-Stimulating Hormone Receptor-Dependent Cre-Luciferase Reporter Gene Assay for the Identification of Follicle-Stimulating Hormone (FSH) Antagonists
A Chinese hamster ovarian cell line that stably produces the human FSH receptor and a luciferase reporter gene regulated by cAMP response elements was used to identify and determine the relative potencies of human FSH receptor antagonists. See for example, Kelton, C. A., et al. Mol. Cell. Endocrinol. 89:141-151 (1992), Tilly, J. L., et al. Endocrinology 131:799-806(1992), and George, S. E., et al. J. Biomol. Screening 2:235-240 (1997).
Compound Vehicle: Stock compounds were solubilized in an appropriate vehicle, e.g., phosphate buffered saline (PBS) or dimethyl sulfoxide (DMSO), at 30 mM. The compounds were subsequently diluted in DMSO to working dilutions of 1 and 20 or 30 mM for 2-dose testing format and 1 μM-10 mM for dose-response format. The DMSO dilutions were diluted 500-fold in sterile growth medium [D-MEM/F-12 (GIBCO/BRL; Grand Island, NY) containing 15 mM HEPES, 2 mM 1-glutamine, pyridoxine hydrochloride, phenol red and 5% FetalClone® II (HyClone Laboratories, Inc; Logan, Utah), 0.2% DMSO, 100 units penicillin G/ml, and 100 μg streptomycin sulfate/ml (GIBCO/BRL)]. The concentration of the vehicle in each of the compound dilutions was the same.
Positive Controls: Purified human FSH (>98%) was purchased from Cortex Biochem, Inc. (San Leandro, Calif.) and 3-[(2S*,5R*)-5-{[2-(1H-Indol-3-yl)-ethylcarbamoyl]-methyl}-4-oxo-2-(5-phenylethynyl-thiophen-2-yl)-thiazolidin-3-yl]-benzamide (an FSH-R thiazolidinone antagonist) was prepared by processes described by R. A. Scheuerman et al. in U.S. Pat. No. 6,426,357 (Affymax).
The CHO FSH-R 6CRE-Luc cells (1D7 cells) were obtained from Affymax (Palo Alto, Calif.). These Chinese hamster ovary cells (CHO-K1) were engineered genetically to stably express the recombinant human FSH receptor gene and a luciferase reporter gene under the regulation of 6 copies of a cAMP response element. The cells were plated one day prior to treatment into 96-well white opaque plates at a density of 50,000 cells/100 μl/well in growth medium. On the day of treatment, the growth medium was removed from the wells by aspiration and 50 μl of fresh growth medium was added to each well. The cells were incubated at 37° C. in a humidified incubator with 5% CO2/95% air.
The treated cells were incubated for 4 hours at 37° C. in a humidified incubator with 5% CO2/95% air. At the end of the incubation period, luciferase activity was measured by chemiluminescence using a commercially available kit (LucScreen, Tropix, Inc., Bedford, Mass.) according to the manufacturer's specifications, except that Buffer 1 and Buffer 2 were mixed together in equal proportion prior to the addition of 100 μl of the combined reagents to each well. Chemiluminescence was detected using a luminometer (EG & G Berthold Microlumat LB 96 P, Wallac, Gaithersburg, Md.) with chemiluminescence measured for 1 sec/well. Background luminescence was measured for each well prior to the addition of the LucScreen reagent.
In the 96-well 2-dose format, each compound was tested in duplicate at each dose. […] One plate was used to test a maximum of 22 compounds.
The EC50 of purified human FSH alone was tested in triplicate with each test compound. The doses chosen to test each compound were extrapolated from the initial 2-dose screening process. Along with the test compounds, purified human FSH also was tested in a dose response (0.03, 0.1, 0.3, 1, 3, 10, and 30 ng/ml) for a positive control and quality control. One plate was used for 3 test compounds and the FSH positive control.
Luciferase activity is expressed as relative light units/sec/well. Luciferase activity in antagonist was compared to the appropriate negative and positive controls. For 2-dose testing, results are reported as luciferase activity and are expressed as percent inhibition of the response obtained from the EC50 of FSH.

Compound	melting point	IC50 (human FSH receptor)	inhibition at 30 µM (human FSH receptor)
COc1cc(C(=O)N2Cc3ccc(C(=O)NC(C)c4ccccc4)n3Cc3ccccc32)ccc1-c1ccccc1C (centres unmarked) [Example 58]	211 °C	> 30 µM	
COc1ccccc1-c1ccc(C(=O)N2Cc3ccc(C(=O)N[C@@H](CO)c4ccccc4)n3Cc3ccccc32)cc1 [Example 4]	195 to 196 °C		9%
COc1ccc(CCNC(=O)c2ccc3n2Cc2ccccc2N(C(=O)c2ccc(-c4ccccc4C)c(OC)c2)C3)cc1 [Example 47, 10-[(2-METHOXY-2′-METHYL-1,1′-BIPHENYL-4-YL)CARBONYL]-N-[2-(4-METHOXYPHENYL)ETHYL]-10,11-DIHYDRO-5H-PYRROLO[2,1-C][1,4]BENZODIAZEPINE-3-CARBOXAMIDE]	193 to 195 °C	> 30 µM	
COc1ccccc1-c1ccc(C(=O)N2Cc3ccc(C(=O)N[C@H](CO)c4ccccc4)n3Cc3ccccc32)cc1 [Example 5]	196 to 197 °C		14%
COC(=O)c1ccc(CNC(=O)c2ccc3n2Cc2ccccc2N(C(=O)COc2ccc(Cl)cc2C)C3)cc1 [Example 77, METHYL 4-{[({10-[(4-CHLORO-2-METHYLPHENOXY)ACETYL]-10,11-DIHYDRO-5H-PYRROLO[2, 1-C][1,4]BENZODIAZEPIN-3-YL}CARBONYL)AMINO]METHYL}BENZOATE]	165 to 167 °C		3.5%
Cc1ccc(CNC(=O)c2ccc3n2Cc2ccccc2N(C(=O)CSc2ccc(Br)cc2)C3)cc1 [Example 83, 10-{[(4-BROMOPHENYL)THIO]ACETYL}-N-(4-METHYLBENZYL)-10,11-DIHYDRO-5H-PYRROLO[2,1-C][1,4]BENZODIAZEPINE-3-CARBOXAMIDE]	131 to 132 °C		24%
O=C(NCC(O)c1ccccc1)c1ccc2n1Cc1ccccc1N(C(=O)COc1ccc(Cl)cc1)C2 (centres unmarked) [Example 73]	157 to 158 °C	25.1 µM	
COc1cc(C(=O)N2Cc3ccc(C(=O)NCc4ccccc4C)n3Cc3ccccc32)ccc1-c1ccccc1C [Example 41, 10-[(2-METHOXY-2′-METHYL-1,1′-BIPHENYL-4-YL)CARBONYL]-N-(2-METHYLBENZYL)-10,11-DIHYDRO-5H-PYRROLO[2,1-C][1,4]BENZODIAZEPINE-3-CARBOXAMIDE]	204 °C		62%
COc1cc(C(=O)N2Cc3ccc(C(=O)NCCc4ccc(Cl)cc4)n3Cc3ccccc32)ccc1-c1ccccc1C [Example 53, N-[2-(4-CHLOROPHENYL)ETHYL]-10-[(2-METHOXY-2′-METHYL-1,1′-BIPHENYL-4-YL)CARBONYL]-10,11-DIHYDRO-5H-PYRROLO[2,1-C][1,4]BENZODIAZEPINE-3-CARBOXAMIDE]	195 to 196 °C	> 30 µM	
Cc1ccccc1-c1ccc(C(=O)N2Cc3ccc(C(=O)NC(C)CCc4ccccc4)n3Cc3ccccc32)cc1C (centres unmarked) [Example 32]	152 to 154 °C	~30 µM	
COc1cc(C(=O)N2Cc3ccc(C(=O)NCCC(c4ccccc4)c4ccccc4)n3Cc3ccccc32)ccc1-c1ccccc1C [Example 59, N-(3,3-DIPHENYLPROPYL)-10-[(2-METHOXY-2′-METHYL-1,1′-BIPHENYL-4-YL)CARBONYL]-10,11-DIHYDRO-5H-PYRROLO[2,1-C][1,4]BENZODIAZEPINE-3-CARBOXAMIDE]	214 °C	> 30 µM	
COc1cc(C(=O)N2Cc3ccc(C(=O)NC4Cc5ccccc5C4)n3Cc3ccccc32)ccc1-c1ccccc1C [Example 65, N-(2,3-DIHYDRO-1H-INDEN-2-YL)-10-[(2-METHOXY-2′-METHYL-1,1′-BIPHENYL-4-YL)CARBONYL]-10,11-DIHYDRO-5H-PYRROLO[2,1-C][1,4]BENZODIAZEPINE-3-CARBOXAMIDE]	230 to 231 °C	> 30 µM	
COc1cc(CNC(=O)c2ccc3n2Cc2ccccc2N(C(=O)CSc2ccc(Br)cc2)C3)ccc1O [Example 82, 10-{[(4-BROMOPHENYL)THIO]ACETYL}-N-(4-HYDROXY-3-METHOXYBENZYL)-10,11-DIHYDRO-5H-PYRROLO[2,1-C][1,4]BENZODIAZEPINE-3-CARBOXAMIDE]	168 °C		37%

The remaining lines, values ahead:

melting point	IC50 (human FSH receptor)	inhibition at 30 µM (human FSH receptor)	Compound
163 to 165 °C		3%	O=C(NC1CCCc2ccccc21)c1ccc2n1Cc1ccccc1N(C(=O)CSc1ccc(Br)cc1)C2 (centres unmarked) [Example 87, 10-{[(4-BROMOPHENYL)THIO]ACETYL}-N-(1,2,3,4-TETRAHYDRONAPHTHALEN-1-YL)-10,11-DIHYDRO-5H-PYRROLO[2,1-C][1,4]BENZODIAZEPINE-3-CARBOXAMIDE]
168 to 169 °C		35%	O=C(NCCc1ccc(O)cc1)c1ccc2n1Cc1ccccc1N(C(=O)CSc1ccc(Br)cc1)C2 [Example 86, 10-{[(4-BROMOPHENYL)THIO]ACETYL}-N-[2-(4-HYDROXYPHENYL)ETHYL]-10,11-DIHYDRO-5H-PYRROLO[2,1-C][1,4]BENZODIAZEPINE-3-CARBOXAMIDE]
176 to 182 °C	> 30 µM		O=C(Nc1ccc2c(c1)C(O)c1ccccc1-2)c1ccc2n1Cc1ccccc1N(C(=O)COc1ccc(Cl)cc1)C2 (centres unmarked) [Example 97, 10-[(4-CHLOROPHENOXY)ACETYL]-N-(9-HYDROXY-9H-FLUOREN-2-YL)-10,11-DIHYDRO-5H-PYRROLO[2,1-C][1,4]BENZODIAZEPINE-3-CARBOXAMIDE]
185 to 189 °C	> 30 µM		O=C(Nc1cccc(-c2ccccc2)c1)c1ccc2n1Cc1ccccc1N(C(=O)COc1ccc(Cl)cc1)C2 [Example 100, N-(1,1′-BIPHENYL-3-YL)-10-[(4-CHLOROPHENOXY)ACETYL]-10,11-DIHYDRO-5H-PYRROLO[2,1-C][1,4]BENZODIAZEPINE-3-CARBOXAMIDE]
126 to 128 °C	> 30 µM		Cc1ccccc1-c1ccc(C(=O)N2Cc3ccc(C(=O)NCC(c4ccccc4)c4ccccc4)n3Cc3ccccc32)cc1C [Example 90]
133 to 136 °C	> 30 µM		CN(C)c1cccc(NC(=O)c2ccc3n2Cc2ccccc2N(C(=O)COc2ccc(Cl)cc2)C3)c1 [Example 101, 10-[(4-CHLOROPHENOXY)ACETYL]-N-[3-(DIMETHYLAMINO)PHENYL]-10,11-DIHYDRO-5H-PYRROLO[2,1-C][1,4]BENZODIAZEPINE-3-CARBOXAMIDE]
